Reference: patent US9956232B2, “Dialkyl-phosphinoyl-alkane (Dapa) compounds and compositions for treatment of lower gastrointestinal tract disorders” (priority 2016, dated 2018)
Where “and” joins values, the source holds several entries; their conditions need not be identical. Equal values may be shown once. Entries after “also recorded” stand apart in the source; their conditions may differ.

Experiments:
[1] = tested on: pentobarbital-anesthetized male rats; assay: Shaking frequency (wet-dog shaking) of anesthetized rats after intravenous, perioral or topical delivery; type: in vivo; conditions: anesthetized rat; for Shaking frequency, Intravenous: 2 mg/kg i.v., 2nd trial, counted for 15 min; for Shaking frequency, Perioral: 20 mg/kg by oral gavage, counted for 40 min; for Shaking frequency, Topical: 20 μL pure compound on shaved abdominal skin, counted for 1 hr
Protocol: In experiments conducted here, test compounds were evaluated for “wet-dog shaking” as a model of cooling sensation. Using a standardized procedure, test compounds were compared in their ability to stimulate the shaking response by intravenous injection into a cannulated femoral vein, by perioral administration, and by topical delivery to the abdominal skin.
Each rat was given two injections with a 30 min interval. […] Shaking frequency was counted for 15 min after injection. Shaking was observed immediately after i.v. injection and at least 78% of the total shakes occurred in the first 5 min after injection. The response in the second trial was at least as robust in the first trial, showing the lack of desensitization.
Test compounds were dissolved in saline and administered by oral gavage to pentobarbital-anesthetized male albino rats at 20 mg/kg at a volume of 0.1 mL/100 g body weight [N=3 to 4 rats per compound]. Shaking was counted over a 40 min period and recorded at 10-min intervals.
For topical application of DAPA, the abdominal skin of the anesthetized rat was shaved and 20 μL of the pure DAPA was applied with a micropipette onto a ˜1 cm diameter circle of skin, enclosed with a ring of cream [Baby cream “Nevskaya kosmetika Detskyi” Nevskaya Kosmetika Inc., Saint-Petersburg 192029], as shown in FIG. 5D. The number of shakes was counted for 1 hr after application.

TRPM8 [2] = molecular target: T1, TRPM8 (Homo sapiens, UniProt Q7Z2W7); assay: TRPM8 receptor agonist assay (Fluo-8 calcium, FLIPR); type: cell-based; parameters: host or cells: CHO cells, stably transfected; conditions: for ×Menthol: TRPM8 relative potency as repeated in Table 4; for Relative Potency: relative to menthol = 1.0 (Table 2)
Protocol: Compounds were tested on (CHO) cells stably transfected with human TRPM8 cDNAs using a Fluo-8 calcium kit and a Fluorescence Imaging Plate Reader ([…]™) instrument. […] Solutions were prepared by diluting stock solutions in a HEPES-buffered physiological saline (HBPS) solution. Test compound and control formulations were loaded in polypropylene or glass-lined 384-well plates, and placed into the FLIPR instrument (Molecular Devices Corporation, Union City, Calif., USA). Each was tested at 8 concentrations with n=4 replicates per determination. […] For […]™ assay, cells were plated in 384-well black wall, flat clear-bottom microtiter plates (Type: BD Biocoat Poly-D-Lysine Multiwell Cell Culture Plate) at approximately 30,000 cells per well. Cells were incubated at 37° C. overnight to reach a near confluent monolayer appropriate for use in a fluorescence assay. The test procedure was to remove the growth media and to add 40 μL of HBPS containing Fluo-8 for 30 minutes at 37° C. 10 μL of test compound, vehicle, or control solutions in HBPS were added to each well and read for 4 minutes. Concentration-response data were analysed via the FLIPR Control software that is supplied with the FLIPR System (MDS-AT) and fitted to a Hill equation.
Target sequence in this assay (Q7Z2W7 whole entry): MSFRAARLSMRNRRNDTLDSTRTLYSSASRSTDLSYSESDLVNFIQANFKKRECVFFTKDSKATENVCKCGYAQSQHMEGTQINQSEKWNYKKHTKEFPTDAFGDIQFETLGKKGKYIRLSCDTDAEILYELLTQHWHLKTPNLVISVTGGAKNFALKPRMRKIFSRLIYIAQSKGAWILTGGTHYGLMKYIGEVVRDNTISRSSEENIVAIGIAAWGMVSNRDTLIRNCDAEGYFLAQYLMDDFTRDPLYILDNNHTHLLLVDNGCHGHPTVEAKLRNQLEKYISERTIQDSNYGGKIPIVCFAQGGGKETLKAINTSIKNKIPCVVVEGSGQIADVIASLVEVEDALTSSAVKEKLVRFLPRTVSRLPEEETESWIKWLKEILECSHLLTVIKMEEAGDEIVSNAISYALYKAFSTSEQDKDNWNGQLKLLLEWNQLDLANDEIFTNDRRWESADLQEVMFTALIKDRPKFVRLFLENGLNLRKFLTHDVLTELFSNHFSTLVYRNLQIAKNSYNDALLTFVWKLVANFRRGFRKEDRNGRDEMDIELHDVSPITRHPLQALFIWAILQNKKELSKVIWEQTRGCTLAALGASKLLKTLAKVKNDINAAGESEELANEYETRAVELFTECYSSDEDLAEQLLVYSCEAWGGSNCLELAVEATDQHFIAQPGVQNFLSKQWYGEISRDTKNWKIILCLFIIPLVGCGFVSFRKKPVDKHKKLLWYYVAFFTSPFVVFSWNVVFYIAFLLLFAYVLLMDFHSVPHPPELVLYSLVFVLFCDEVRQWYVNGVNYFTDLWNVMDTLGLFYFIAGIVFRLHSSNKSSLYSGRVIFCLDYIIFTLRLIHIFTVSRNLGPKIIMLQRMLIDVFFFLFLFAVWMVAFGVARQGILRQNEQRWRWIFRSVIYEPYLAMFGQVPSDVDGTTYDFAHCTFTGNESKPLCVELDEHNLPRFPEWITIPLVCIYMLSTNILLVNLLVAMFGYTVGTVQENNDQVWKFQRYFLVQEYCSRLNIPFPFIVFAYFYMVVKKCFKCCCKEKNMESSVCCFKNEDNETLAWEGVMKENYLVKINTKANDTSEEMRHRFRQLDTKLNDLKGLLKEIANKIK

[3] = tested on: heat-induced edema in the anesthetized rat paw; assay: Heat-induced edema in the anesthetized rat paw; type: in vivo; conditions: 20 mg/mL, 0.3 mL per paw, 30 min before 58° C. water 1 min; relative to contralateral paw
From the text: Inflammation is defined as the reaction of vascularized living tissue to local injury [Cotran, R S. 1989. Inflammation and repair. In Robbins: Pathologic Basis of Disease, ed. S. L. Robbins, R. S. Cotran, V. Kumar, 2:39-86. Philadelphia: Saunders. 4th ed.]. The characteristic signs of inflammation are redness, swelling, heat, and pain (and loss of function). The anti-inflammatory properties of the DAPA compounds were studied in a model of heat-induced vascular leakage [Wei et al. Method of inhibiting inflammatory response. U.S. Pat. No. 4,801,612; Wei et al., Anti-inflammatory peptide agonists. Annual Review Pharmacol Toxicol. 33:9-108, 1993]. When the paws of pentobarbital-anesthetized rats (200 to 300 g body weight) are immersed in 58° C. water for 1 min, the normal paw volume of about 1.8 mL was increased by ˜88% within 30 min, the swelling being due to an increase in water content of the paw.
Test compounds were dissolved in 20% water-80% R-1,2-propanediol at 20 mg/mL. The solutions were applied to the paw skin of pentobarbital-anesthetized rats (200 to 300 g body weight) at 0.3 mL per paw, using a syringe attached to a blunt 21 gauge needle covered at its tip with a piece of polyethylene 60 tubing. After distributing the solution over the paw, the paw was tightly enclosed in a plastic finger cut from a disposable glove. The contralateral paw [control] received only the vehicle. Thirty min after application, both paws were immersed in 58° C. water for 1 min. Thirty min after immersion, both paws were cut at ankle joint with scissors and weighed.
This degree of inhibition is significant for tissue protection as the injury stimulus is of supra-maximal intensity. The DAPA-2-5 effect was apparent to the untrained observer.

[4] = Repeated-dose toxicity in male rats (organ weights, histology); type: in vivo, rat; conditions: 30 mg/kg subcutaneously daily for 7 days, male rats
Strains TA 98 and TA100 = assay: Ames test; type: cell-based; conditions: TA 98 and TA100, with and without liver activation
Protocol: Preliminary toxicological studies were conducted on DAPA-2-5 and DAPA-2-7.

TRPV1 = TRPV1 (Homo sapiens, UniProt Q8NER1); assay: TRPV1 selectivity assay, calcium entry in transfected HEK293 cells; type: cell-based; parameters: expressed in transfected cells; host or cells: HEK293 cells; conditions: maximum tested concentration 100 μM
Chain of TRPV1 (Q8NER1 whole entry): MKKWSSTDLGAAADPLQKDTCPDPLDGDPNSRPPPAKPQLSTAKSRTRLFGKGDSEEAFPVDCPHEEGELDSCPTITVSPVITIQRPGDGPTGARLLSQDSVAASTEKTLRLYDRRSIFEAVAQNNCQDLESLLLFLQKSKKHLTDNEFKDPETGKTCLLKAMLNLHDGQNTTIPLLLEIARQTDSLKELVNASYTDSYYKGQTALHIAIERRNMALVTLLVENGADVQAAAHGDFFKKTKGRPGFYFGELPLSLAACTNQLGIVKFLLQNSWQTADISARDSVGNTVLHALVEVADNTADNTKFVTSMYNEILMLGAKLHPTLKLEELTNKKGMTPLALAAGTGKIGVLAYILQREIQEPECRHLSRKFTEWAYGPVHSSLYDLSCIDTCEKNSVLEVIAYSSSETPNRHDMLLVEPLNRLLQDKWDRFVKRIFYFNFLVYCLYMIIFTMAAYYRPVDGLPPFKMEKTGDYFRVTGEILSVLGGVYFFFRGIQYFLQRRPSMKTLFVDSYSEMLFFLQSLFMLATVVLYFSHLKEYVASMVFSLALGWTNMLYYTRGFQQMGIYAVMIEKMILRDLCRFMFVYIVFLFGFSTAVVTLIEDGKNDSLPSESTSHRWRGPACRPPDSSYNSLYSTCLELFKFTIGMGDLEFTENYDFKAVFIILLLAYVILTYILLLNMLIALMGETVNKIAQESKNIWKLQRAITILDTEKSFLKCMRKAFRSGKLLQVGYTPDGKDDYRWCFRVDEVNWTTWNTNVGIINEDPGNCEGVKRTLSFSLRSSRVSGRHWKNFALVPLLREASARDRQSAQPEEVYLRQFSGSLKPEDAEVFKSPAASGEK
From the text: (§1) The selectivity of test compounds were examined on TRPV1 channels (human TRPV1 gene expressed in HEK293 cells) and TRPA1 channels (human TRPA1 gene expressed in CHO cells). The test cells were Chinese Hamster Ovary (CHO) cells or Human Embyronic Kidney (HEK) 293 cells transfected with human TRPV1 or TRPA1 cDNAs.
(§2) The ordinate is given in Relative Fluorescence Units; % of maximum, which measure calcium entry into the transfected cells and the abscissa is the logarithm of the concentration of the test compound.

TRPA1 = TRPA1 (Homo sapiens, UniProt O75762); assay: TRPA1 selectivity assay, calcium entry in transfected CHO cells; type: cell-based; parameters: expressed in transfected cells; host or cells: CHO cells; conditions: maximum tested concentration 100 μM
Chain of TRPA1 (O75762 whole entry): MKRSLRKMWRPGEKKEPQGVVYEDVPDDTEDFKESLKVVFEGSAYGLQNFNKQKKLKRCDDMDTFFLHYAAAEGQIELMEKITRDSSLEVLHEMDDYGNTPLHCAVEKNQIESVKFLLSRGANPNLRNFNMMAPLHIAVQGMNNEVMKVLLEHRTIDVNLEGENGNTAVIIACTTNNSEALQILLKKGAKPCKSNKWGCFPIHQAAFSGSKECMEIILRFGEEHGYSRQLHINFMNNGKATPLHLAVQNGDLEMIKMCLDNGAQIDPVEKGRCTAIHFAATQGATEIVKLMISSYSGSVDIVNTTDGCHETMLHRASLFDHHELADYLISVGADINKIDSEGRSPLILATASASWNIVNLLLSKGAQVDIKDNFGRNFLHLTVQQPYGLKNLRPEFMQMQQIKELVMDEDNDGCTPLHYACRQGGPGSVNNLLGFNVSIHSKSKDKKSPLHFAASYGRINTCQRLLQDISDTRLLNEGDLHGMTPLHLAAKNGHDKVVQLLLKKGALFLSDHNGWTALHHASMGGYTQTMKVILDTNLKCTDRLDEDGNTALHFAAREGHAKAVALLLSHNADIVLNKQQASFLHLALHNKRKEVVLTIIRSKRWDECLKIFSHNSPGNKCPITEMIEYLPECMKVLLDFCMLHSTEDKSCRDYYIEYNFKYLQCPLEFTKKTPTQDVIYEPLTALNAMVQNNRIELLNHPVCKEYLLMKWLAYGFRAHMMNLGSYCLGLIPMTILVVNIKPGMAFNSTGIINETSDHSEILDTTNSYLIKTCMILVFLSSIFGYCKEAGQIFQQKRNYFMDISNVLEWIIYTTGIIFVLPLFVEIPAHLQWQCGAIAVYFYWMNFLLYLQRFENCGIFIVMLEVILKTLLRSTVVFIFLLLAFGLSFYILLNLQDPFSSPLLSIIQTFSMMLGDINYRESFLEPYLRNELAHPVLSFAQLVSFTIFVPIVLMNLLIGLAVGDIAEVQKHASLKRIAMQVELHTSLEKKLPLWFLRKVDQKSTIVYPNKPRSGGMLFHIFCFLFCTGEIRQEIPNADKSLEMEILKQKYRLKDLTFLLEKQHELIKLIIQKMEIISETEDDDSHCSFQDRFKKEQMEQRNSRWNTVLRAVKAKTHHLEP
From the text: as §1, §2

isolated mouse vagus = assay: Capsaicin-induced depolarization of the isolated vagus nerve
From the text: An isolated vagus nerve model was developed at Imperial College, London, U.K. [Birrell et al. TrpA1 agonists evoke coughing in guinea pig and human volunteers. Amer. J. respiratory and critical care medicine 180, 1042-7, 2009; Patel, H. J. et al. Inhibition of guinea-pig and human sensory nerve activity and the cough reflex in guinea-pigs by cannabinoid (CB2) receptor activation. Brit. J. Pharmacol. 140, 261-8, 2003]. In this in vitro assay, segments of the mouse vagus nerve are placed on a platform and the electrical activity is recorded after topical application of capsaicin. Capsaicin is a known irritant that elicits pain when it is applied to the skin and it will depolarize the isolated vagus. […] The similar effect of DAPA-2-5 in this test system was published in U.S. Ser. No. 14/55,042. Briefly, segments of vagus nerve, caudal to the nodose ganglion, were removed from mice with fine forceps and segments placed in oxygenated Krebs solution and bubbled with 95% O2/5% CO2. The desheathed nerve trunk was mounted in a ‘grease-gap’ recording chamber and constantly superfused with Krebs solution with a flow rate of approximately 2 mL/min, and the electrical activity of the nerve monitored with electrodes. The temperature of the perfusate was kept constant at 37° C. by a water bath. Nerve depolarizations were induced by superfusion of the nerve with capsaicin (1 μM). After two reproducible depolarization responses to capsaicin, DIPA-1-7 was applied at 1 mg/mL for 10 minutes in the perfusate followed by capsaicin.

TRPM8 [5] = molecular target: T1, TRPM8; assay: TRPM8 assay of DIPA-1-10 at King's College, different assay conditions; type: cell-based
From the text: [Table 2] […] The data for DIPA-1-10 is not included in the Table 2 or Figure because it was obtained under different assay conditions.
Target sequence in this assay (Q7Z2W7 whole entry, species assumed): as the sequence (Q7Z2W7 whole entry) above

TRPM8 [6] = molecular target: T1, TRPM8; conditions: literature; cited from earlier work
Target sequence in this assay (Q7Z2W7 whole entry, species assumed): as the sequence (Q7Z2W7 whole entry) above

Row | SMILES | Shaking frequency, Intravenous [1] [shakes] | Shaking frequency, Perioral [1] | Shaking frequency, Topical [1] [shakes] | ×Menthol (TRPM8 [2]) | Relative Potency (TRPM8 [2]) | Inhibition of Heat Edema (±S.E.M.) [3] [%] | also measured
1 | CCCCP(=O)(C(C)CC)C(C)CC (centres unmarked) [DAPA-2-4, 1-Di(sec-butyl) phosphinoyl-butane] | 8 ± 2 | 0 shakes | 0 | 0.3 | 0.3 | – | –
2 | CCCCCCP(=O)(C(C)CC)C(C)CC (centres unmarked) [DAPA-2-6, 1-Di(sec-butyl) phosphinoyl-hexane] | 30 ± 3 | 0 shakes | 0 | 4.7 | 4.7 | 2.9 ± 1.4 | –
3 | CCCCCCCP(=O)(C(C)CC)C(C)CC (centres unmarked) [DAPA-2-7, 1-Di(sec-butyl) phosphinoyl-heptane] | 15 ± 2 | 0 shakes | 0 | 3.4 | 3.4 | 5.2 ± 2.1 | body or organ weights vs vehicle [4]: no significant differences in body or organ weights; heart and liver histology [4]: normal; mutagenicity in the Ames test (Strains TA 98 and TA100): Neither of these compounds was mutagenic
4 | CCCCCCCCP(=O)(C(C)CC)C(C)CC (centres unmarked) [DAPA-2-8, 1-Di(sec-butyl) phosphinoyl-octane] | 2. | 0 shakes | 0 | 2.9 | 2.9 | – | –
5 | CCCCCP(=O)(CC(C)C)CC(C)C [DAPA-3-1, 1-Di(iso-butyl) phosphinoyl-pentane] | – | – | – | – | 0.2 | – | –
6 | CCC(C)P(=O)(CCC(C)C)C(C)CC (centres unmarked) [DAPA-3-2, 1-Di(sec-butyl) phosphinoyl-3-methyl-butane] | – | – | – | – | 0.9 | – | –
7 | CCCCCP(=O)(C(C)C)C(C)C [DIPA-1-5, 1-Diisopropyl-phosphinoyl-pentane] | 19 ± 3 | 86 shakes and 86 ± 7 shakes | 138 ± 15 | 0.7 | 0.7 | – | –
8 | CCCCCCP(=O)(C(C)C)C(C)C [DIPA-1-6, 1-Diisopropyl-phosphinoyl-hexane] | 39 ± 4 | 56 shakes and 56 ± 5 shakes | 69 ± 8 | 1.6 | 1.6 | – | –
9 | CCCCCCCP(=O)(C(C)C)C(C)C [DIPA-1-7, 1-Diisopropyl-phosphinoyl-heptane] | 25 ± 3 | 36 shakes and 36 ± 4 shakes | 79 ± 8 | 5.4 | 5.4 | −1.5 ± 2.0 | agonist or antagonist activity on TRPV1 channels (TRPV1): did not exhibit significant agonist on antagonist activity; also recorded: slight non-dose-dependent agonist action; agonist or antagonist activity on TRPA1 channels (TRPA1): did not exhibit significant agonist on antagonist activity; inhibition at 1000 µg/mL (isolated mouse vagus; isolated TRPM8 knock-out mouse vagus, 1 mg/mL, capsaicin 1 μM, read-out: percent inhibition of capsaicin-induced depolarization): ~20%; depolarization evoked by the compound by itself (isolated mouse vagus; isolated mouse vagus, no capsaicin): did not evoke depolarization; percent inhibition of capsaicin-induced depolarization (isolated mouse vagus; isolated normal (wild type) mouse vagus, 1 mg/mL superfused 10 min, capsaicin 1 μM): about 75%
10 | CCCCCCCCP(=O)(C(C)C)C(C)C [DIPA-1-8, 1-Diisopropyl-phosphinoyl-octane] | 14 ± 2 | 0 shakes | 7 ± 2 | 5.4 | 5.4 | −5.0 ± 2.7 | agonist or antagonist activity on TRPV1 channels (TRPV1): did not exhibit significant agonist on antagonist activity; agonist or antagonist activity on TRPV1 channels (TRPV1; listed as DAPA-1-8): devoid of agonist or antagonist activities; agonist or antagonist activity on TRPA1 channels (TRPA1): did not exhibit significant agonist on antagonist activity; agonist or antagonist activity on TRPA1 channels (TRPA1; listed as DAPA-1-8): devoid of agonist or antagonist activities
11 | CCCCCCCCCCP(=O)(C(C)C)C(C)C [DIPA-1-10] | – | – | – | – | – | – | potency × menthol (TRPM8 [5]): 1.7 ×; times less active than DIPA-1-9 (TRPM8 [5]): 2.4 ×
12 | O=C1NC(c2cccc([N+](=O)[O-])c2)=CCN1c1ccccc1O [Icilin] | – | – | – | – | – | – | TRPM8 agonist potency × menthol (TRPM8 [6]): 200 ×
13 | COc1cc(CNC(=O)CCCC/C=C/C(C)C)ccc1O [capsaicin, reference compound] | – | – | – | – | – | – | agonist or antagonist activity on TRPV1 channels (TRPV1): active
